Measured values published in patent publication US20240324627A1, “USE OF A FEED ADDITIVE IN LOW ENERGY FEED FOR PIGS” (Alzchem Trostberg GmbH, priority 2021, published 2024).

How the values were obtained:
fattening pigs = assay: 39-day feeding experiment in fattening pigs with low energy feed; format: in vivo
From the text: In a 39-day feeding experiment, three different feed concepts were fed to fattening pigs with an initial weight of ˜65 kg. For each feeding concept, 80 pigs in 16 pens (5 animals per pen) were examined. The pens were exclusively occupied by animals of the same gender, i.e. females or non-castrated boars, in a 1:1 gender ratio. The three different feed groups were optimized for the content of metabolic energy (ME) and the other raw nutrients based on the supply recommendations of the NRC (National Research Council of the National Academies, 2012: Nutrient requirements of Swine/Committee on Nutrient Requirements of Swine, Board on Agriculture and Natural Resources, Division on Earth and Life Studies.-11th rev. ed. p. cm.). A positive control group with 13.0 MJ ME covering the energy requirements was compared with a negative control group with 12.8 MJ ME reduced by 0.2 MJ. In a guanidinoacetic acid group supplemented with 600 g/t, an energy content of 12.7 MJ ME was adjusted. The fattening phase lasted 39 days. On day 40, the animals that had already reached the slaughter weight of ˜108 kg were slaughtered. For this reason, data was recorded on this day. The rations were based on wheat, wheat semolina bran, rapeseed extraction meal and soy extraction meal. Animal fat was also added in relevant amounts. The diets were isonitrogenous, i.e. the supply of crude protein and digestible amino acids was identical in all three treatment groups. [table] Feed conversion is the amount of feed consumed that leads to a weight gain of the animal of one kilogram. Energy utilization is the energy intake per kilogram of weight gain.

pigs = details: Weber et al. 2017, cited from earlier work
[1] = 600 g/t (0.06%) in 12.7 MJ ME/kg feed

With `N=C(N)NCC(=O)O` [guanidinoacetic acid, Guanidinoacetic acid] the “Daily feed intake, day 1-39” value (fattening pigs; [1]) was 2223 g, the “Daily weight gain, day 1-39” value (fattening pigs; [1]) was 828 g and the “Energy utilization, day 1-39” value (fattening pigs; [1]) was 34.2 MJ ME/kg gain. The “Feed conversion, day 1-39” value (fattening pigs; [1]) was 2.69 kg feed/kg gain, the “Live weight, day 39” value (fattening pigs; [1]) was 96.2 kg and the Average slaughter weight (fattening pigs; 600 g/t in 12.7 MJ ME/kg feed) was 107.3 kg. The “Daily weight gains in the fattening phase” value (fattening pigs; 600 g/t in 12.7 MJ ME/kg feed) was “approximately 830 g/d”, the Energy deficit compensated (fattening pigs; addition of 600 g/t, daily feed intake at level of positive control) was 0.2 MJ ME and the “Improvement of feed conversion ratio compared to the negative control” value (fattening pigs; fattening phase, vs 12.8 MJ ME negative control) was 23 points. For the same molecule, the “Improvement of feed conversion ratio compared to the positive control” value (fattening pigs; fattening phase, vs 13.0 MJ ME positive control) was 6 points, the “Less energy required per kg gain vs negative control” value (fattening pigs; fattening phase, vs negative control) was 4.3 MJ ME and the “Less energy required per kg gain vs positive control” value (fattening pigs; fattening phase, vs positive control) was 2.1 MJ ME. For the same molecule, the “Average number of fattening days (from the start of the fattening phase)” value (fattening pigs; until slaughter, 600 g/t in 12.7 MJ ME/kg feed) was 52, the Energy utilization improvement (fattening pigs; vs positive control) was “approximately 5.8%” and the Feed conversion improvement (fattening pigs; vs positive control) was “approximately 2.2%”. For the same molecule, the Feed uptake (pigs; addition to high energy feed) was “slightly lower”, the “Daily increase (weight gain)” value (pigs; common feed) was “only a slight daily increase at the threshold of significance” and the Feed conversion (pigs; common feed) was “slight improvement”.
